# Test results published in patent US11352399B2, “Peptide for toll-like receptor (TLR) inhibition and pharmaceutical composition comprising same” (GENESEN CO., LTD., priority 2017, dated 2022).
# Assays:
# [1] = test system: mBMDM cells (Poly(I:C)-induced); assay: Poly(I:C)-induced IFN-β generation in mBMDM cells; type: cell-based, mouse
# TLR4 signaling pathways = assay: Western blotting of NF-κB and MAPK in LPS-treated hPBMC cells; type: cell-based, human; details: LPS together with TIP1
# Procedure: In order to perform Western blotting, a pre-protein extraction solution (M-PER, Thermo Fisher Scientific Inc.) was mixed with a protease and phosphatase inhibitor mixture, and was added to RAW 264.7 cell or hPBMC cell pellets. The pellets were cooled for 10 minutes, and then the lysates were centrifuged at 16000×g for 10 minutes. Then, NE-PER nuclear and cytoplasmic extraction reagents (Thermo Fisher Scientific Inc.) were used to extract cytoplasmic and nuclear proteins, respectively, and a BCA kit (Sigma-Alderich Co. LLC) was used to measure concentrations of the proteins. Subsequently, the same amounts of proteins were developed on SDS-polyacrylamide gels, and electrophoresis was performed using the Mini-PROTEAN Tetra Cell two-dimensional electrophoresis system (Bio-Rad Laboratories, Hercules, Calif., USA). The membrane was immunoblotted with primary antibodies by gentle shaking overnight at a temperature of 4° C. […] Then, after thorough shaking with PBST, the membrane was incubated with anti-mouse/-rabbit HRP-conjugated secondary antibodies (Thermo Fisher Scientific Inc.) for 2 hours; and the proteins were detected with SuperSignal West Pico ECL solution (Thermo Fisher Scientific Inc.) and were visualized with the Fuji LAS-3000 system (Fujifilm, Tokyo, Japan). […]
# NF-κB (p-p65) = assay: Confocal microscopy of NF-κB activity (p-p65) in LPS-treated RAW 264.7 cells; type: cell-based, mouse; details: LPS together with TIP1, FIG. 3
# Procedure: RAW 264.7 cells and THP1 cells were dispensed into 24-well plates to a cell number of 2×10^5 cells/well, and then grown in an incubator overnight. Subsequently, combined treatment with TIP1 and LPS was performed. After 24 hours, the RAW 264.7 cells and the THP1 cells were fixed with 3.7% formaldehyde (Sigma-Aldrich Co. LLC) for 15 minutes, and immersed into 0.2% Triton X-100 (AMRESCO, Solon, Ohio, USA) for 15 minutes. Then, washing with PBS was performed three times and blocking with 2% BSA solution was performed. The blocked cells were incubated for 2 hours with TIP1-FITC (25 μM; Peptron, Inc., Daejeon, Korea), p-p65, TLR4, Myd88, TOM20 (1:1000; Santa Cruz Biotechnology Inc.), and NLRP3 (Adipogen) antibodies. Then, washing with PBS was performed three times. Subsequently, the cells were incubated with AlexaFluor […] and/or 488 and/or 546-conjugated secondary antibodies (Invitrogen, Carlsbad, Calif., USA) for 1 hour, and washed three times with PBS. Subsequently, the cells were stained at room temperature for 15 minutes using 5 μM Hoechst 33258 (Sigma-Aldrich Co.), and the number of the fluorescently stained cells was counted using a confocal laser scanning microscope (LSM-700, Carl Zeiss MicroImaging GmbH). The images were analyzed using Zen 2009 software.
# The results are illustrated in FIG. 3.
# NLRP3 inflammasome [2] = assay: Western blotting of NLRP3 inflammasome molecules in LPS/ATP-treated THP1 cells; type: cell-based, human
# [3] = test system: liver tissues of C57BL/6J mice; assay: Cytokine expression in liver tissue of LPS-treated mice (Western blotting); type: in vivo, mouse; details: LPS and TIP1, 2 hours
# [4] = test system: renal tissue of LPS-treated mice; assay: Renal apoptosis by TUNEL staining in LPS-treated mice; type: in vivo, mouse; details: TIP1 and LPS, 24 hours
# Procedure: Subsequently, renal tissues were isolated and weighed using an electronic balance (ER-180A, A&D Company, Tokyo, Japan); and then, cut into sagittal planes to make slices. The slices were left overnight in a 10% formalin solution, and then solidified by pouring of paraffin wax. The resultant was made into thin sections of 4 μm using a microtome and fixed. […] The images were analyzed using Zen 2009 software (Carl Zeiss MicroImaging GmbH.). The results are illustrated in FIG. 17.
# NLRP3 inflammasome [5] = assay: Western blotting of NLRP3 inflammasome molecules in LPS/ATP-treated mBMDM cells; type: cell-based, mouse
# TLR2/6 = target: T1, TLR2/6 (Mus musculus, UniProt Q9EPW9+Q9QUN7); assay: TNF-α secretion in RAW 264.7 cells with FSL-1; type: cell-based
# T1 construct: host or cells: RAW 264.7
# T1 sequence (Q9QUN7 25-784): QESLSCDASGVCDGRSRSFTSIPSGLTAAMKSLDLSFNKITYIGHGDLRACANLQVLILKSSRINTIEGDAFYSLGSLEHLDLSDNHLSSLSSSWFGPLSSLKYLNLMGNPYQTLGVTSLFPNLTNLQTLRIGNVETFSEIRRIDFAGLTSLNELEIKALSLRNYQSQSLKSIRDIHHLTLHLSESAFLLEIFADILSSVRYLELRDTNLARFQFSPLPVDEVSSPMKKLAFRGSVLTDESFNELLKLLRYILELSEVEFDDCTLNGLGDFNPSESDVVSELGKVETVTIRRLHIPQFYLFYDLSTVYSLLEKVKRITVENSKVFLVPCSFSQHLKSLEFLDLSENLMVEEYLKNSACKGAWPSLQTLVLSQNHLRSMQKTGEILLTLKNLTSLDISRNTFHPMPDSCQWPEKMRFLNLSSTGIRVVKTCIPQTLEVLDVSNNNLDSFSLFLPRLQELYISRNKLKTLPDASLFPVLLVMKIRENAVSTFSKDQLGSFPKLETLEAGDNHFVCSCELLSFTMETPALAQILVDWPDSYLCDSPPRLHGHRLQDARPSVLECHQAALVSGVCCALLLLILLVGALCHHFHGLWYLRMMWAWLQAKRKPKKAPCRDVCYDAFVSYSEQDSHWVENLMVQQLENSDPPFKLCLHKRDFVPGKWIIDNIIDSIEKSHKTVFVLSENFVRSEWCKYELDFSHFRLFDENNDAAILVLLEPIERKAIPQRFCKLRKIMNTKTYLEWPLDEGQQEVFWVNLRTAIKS
# T1 sequence (Q9EPW9 28-795): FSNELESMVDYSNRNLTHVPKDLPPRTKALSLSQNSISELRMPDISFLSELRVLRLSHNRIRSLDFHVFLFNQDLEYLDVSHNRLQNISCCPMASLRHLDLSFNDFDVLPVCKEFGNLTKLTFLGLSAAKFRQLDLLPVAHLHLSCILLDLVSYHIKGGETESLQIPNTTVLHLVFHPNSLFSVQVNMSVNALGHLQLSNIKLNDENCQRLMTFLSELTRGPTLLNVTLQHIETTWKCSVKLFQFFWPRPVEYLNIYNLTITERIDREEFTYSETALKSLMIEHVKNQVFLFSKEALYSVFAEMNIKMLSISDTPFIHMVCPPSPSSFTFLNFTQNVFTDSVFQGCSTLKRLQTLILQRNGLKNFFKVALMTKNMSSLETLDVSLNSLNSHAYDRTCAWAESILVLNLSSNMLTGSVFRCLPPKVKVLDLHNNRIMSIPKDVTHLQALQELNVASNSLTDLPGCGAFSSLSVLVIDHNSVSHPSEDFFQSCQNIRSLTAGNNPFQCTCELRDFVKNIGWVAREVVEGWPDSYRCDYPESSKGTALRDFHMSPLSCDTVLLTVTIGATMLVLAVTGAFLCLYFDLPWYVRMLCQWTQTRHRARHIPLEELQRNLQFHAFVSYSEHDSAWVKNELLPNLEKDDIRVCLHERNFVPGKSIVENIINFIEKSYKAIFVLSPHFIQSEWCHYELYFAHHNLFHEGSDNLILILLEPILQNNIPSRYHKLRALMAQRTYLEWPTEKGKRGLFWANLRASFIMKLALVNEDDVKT
# [6] = test system: LPS-induced sepsis model BALB/c mice; assay: Survival rate in LPS-induced sepsis model; type: in vivo, mouse
# Procedure: The control was injected with the same volume of PBS. The results are illustrated in FIG. 18.
# NLRP3 inflammasome [7] = assay: IL-1β secretion (ELISA) in LPS/ATP-treated THP1 cells; type: cell-based, human; details: TIP1 and LPS/ATP
# [8] = severe sepsis model, LPS 10 μg/g, TIP1 10 nmol/g
sequence,measurement,setting,value
RQIKIWFQNRRMKWKKSHCRVLLI (TIP1),Poly(I:C)-induced generation of IFN-β,[1],inhibited
same,"MAPK activity (phosphorylation of ERK, JNK, p38)",TLR4 signaling pathways,MAPK activity is inhibited
same,"NF-κB activity (Iκ-Bα, Western blotting)",TLR4 signaling pathways,NF-κB activity was inhibited
same,NF-κB activity (LPS-induced p65 phosphorylation level in the nucleus),NF-κB (p-p65),NF-κB activity was decreased
same,intracellular expression level of NLRP3,NLRP3 inflammasome [2],remarkably decreased
same,intracellular expression level of active caspase-1 (10 kDa),NLRP3 inflammasome [2],remarkably decreased
same,intracellular expression level of mature IL-1β (17 kDa),NLRP3 inflammasome [2],remarkably decreased
same,LPS-induced expression level of IL-6 in liver tissue,[3],remarkably decreased
same,LPS-induced expression level of TNF-α in liver tissue,[3],remarkably decreased
same,apoptosis in renal tissue (TUNEL-positive cells),[4],decreased
same,intracellular expression level of NLRP3,NLRP3 inflammasome [5],remarkably decreased
same,intracellular expression level of active caspase-1 (10 kDa),NLRP3 inflammasome [5],remarkably decreased
same,intracellular expression level of mature IL-1β (17 kDa),NLRP3 inflammasome [5],remarkably decreased
same,secretion level of TNF-α,TLR2/6,decreased
same,survival rate compared with only LPS,"[6]; BALB/c mice, TIP1 10 nmol/g and LPS 5 or 10 μg/g, 5 days",increased survival rate
same,survival rate maintained for 5 days,"[6]; mild sepsis model, LPS 5 μg/g, TIP1 10 nmol/g",30%
same,decrease of survival rate after two days,[6]; [8],90%
same,survival rate maintained for one day,[6]; [8],100%
same,secretion level of IL-1β,NLRP3 inflammasome [7],decreased
